# Test results published in US9303165B2, “Bacteriochlorin imides” (North Carolina State University, priority 2011, dated 2016).
# Like-named read-outs stand apart in the source and are kept apart here.
# Key:
# [1] = Static absorption spectra (Qy(0,0) band); format: physicochemical; settings: for λQy abs: Qy(0,0) absorption band, in toluene at room temperature; for λQy/IB: ratio of the peak intensities of the Qy(0,0) and B bands, toluene, room temperature
# Experimental: (§1) Static absorption and fluorescence measurements were performed as described previously.^69,70 Argon-purged solutions of the samples in toluene with an absorbance of ≦0.10 at the excitation wavelength were used for the fluorescence spectral, quantum yield, and lifetime measurements. Fluorescence lifetimes were obtained using a phase modulation technique and Soret-band excitation^70 or via decay measurements using Soret-region excitation pulses obtained from a nitrogen-pumped dye laser and time-correlated-single-photon-counting detection. Emission measurements employed 2-4 nm excitation- and detection-monochromator bandwidths and 0.2 nm data intervals. Emission spectra were corrected for detection-system spectral response.
# [2] = Static fluorescence spectra and fluorescence quantum yield; format: physicochemical; settings: for λQy em: Qy(0,0) emission band, in toluene at room temperature; for Φf fluorescence quantum yield: toluene, room temperature, argon-purged, error ± 7%
# Experimental: as §1
# [3] = Singlet excited-state lifetime by fluorescence techniques; format: physicochemical; settings: toluene, room temperature; error ± 7%
# Experimental: as §1
# [4] = cited from earlier work
# [5] = cited from earlier work; remark: listed apart in the source
# [6] = organic solvents; cited from earlier work
Structure (SMILES),λQy abs [1],λQy/IB [1],λQy em [2],Φf fluorescence quantum yield [2],τs lifetime of the lowest singlet excited state [3],also measured
C=Cc1c(C)c2cc3nc(c4c5[n-]c(cc6nc(cc1[n-]2)C(C)=C6CC)c(C)c5C(=O)[C@@H]4C(=O)OC)[C@@H](CCC(=O)OC/C=C(\C)CCC[C@H](C)CCC[C@H](C)CCCC(C)C)[C@@H]3C.[Mg+2] [chlorophyll a],–,–,–,–,–,Φf of quantum yield standard ([2]; in toluene): same value as in benzene; Φf of quantum yield standard ([4]; in benzene): 0.325
CC[C@H]1c2cc3[nH]c4c(c5nc(cc6[nH]c(cc(n2)[C@@H]1C)c(C(C)=O)c6C)[C@@H](C)[C@@H]5CCC(=O)OC)CC(=O)c4c3C [methyl bacteriopyropheophorbide a],–,–,–,–,–,"Qy(0,0) absorption ([5]; in CH2Cl2): 754 nm"
C1=Cc2nc1c(-c1ccccc1)c1ccc([nH]1)c(-c1ccccc1)c1nc(c(-c3ccccc3)c3ccc([nH]3)c2-c2ccccc2)C=C1 [free base tetraphenylporphyrin],–,–,–,–,–,Φf of quantum yield standard ([4]; free base): 0.090
CC(=O)O[C@@H]1C[C@@H](O)[C@@H](C)OC1[C@]1(C)C(=O)c2cc3cc(C)c(cc4nc(cc5[nH]c(cc1n2)cc5C)C(=O)[C@@]4(C)C1O[C@H](C)[C@H](O)C[C@H]1OC(C)=O)[nH]3 (some centres unmarked) [tolyporphin A],–,–,–,–,–,absorption wavelength [5]: 678 nm
"CC[C@H]1c2cc3[nH]c4c(c3C)C(=O)[C@H](C(=O)OC)c4c3nc(cc4[nH]c(cc(n2)[C@@H]1C)c(C(C)=O)c4C)[C@@H](C)[C@@H]3CCC(=O)OC/C=C(\C)CCC[C@H](C)CCC[C@H](C)CCCC(C)C [BPh-a, Bacteriopheophytin a]",758 nm,0.69,768 nm,0.10,2.7 ns,"Qy(0,0) absorption ([5]; hydrocarbon / organic solvents): 750-760 nm; average singlet excited-state lifetime [6]: 2.0-2.7 ns"
"CCOC(=O)c1c(CC)c2cc3nc(c(OC)c4[nH]c(cc5nc(cc1[nH]2)CC5)c(CC)c4C(=O)OCC)CC3 [MeOBC-EtEs, 2,12-diethyl-3,13-diethoxycarbonyl-5-methoxybacteriochlorin]",739 nm,1.1,749 nm,0.17,4.3 ns,"Stokes shift (fluorescence Qy(0,0) to longer wavelength than absorption Qy(0,0)) ([2]; in toluene): ~15 nm"
"CCOC(=O)c1c(CC)c2cc3nc(c4c5[nH]c(cc6nc(c(OC)c1[nH]2)CC6(C)C)c(CC)c5C(=O)N(Cc1ccccc1)C4=O)CC3(C)C [MeOBC-I, 15^2-N-Benzyl-3-ethoxycarbonyl-2,12-diethyl-5-methoxy-8,8,18,18-tetramethyl-bacteriochlorin-13,15-dicarboximide]",793 nm,1.0,798 nm,0.052,2.2 ns,"Stokes shift (fluorescence Qy(0,0) to longer wavelength than absorption Qy(0,0)) ([2]; in toluene): ~5 nm"

# Further lines, with some results ahead:
λQy abs [1],λQy/IB [1],λQy em [2],Φf fluorescence quantum yield [2],τs lifetime of the lowest singlet excited state [3],Structure (SMILES),also measured
713 nm,0.85,716 nm,0.17,4.0 ns,CC1(C)Cc2cc3ccc(cc4nc(cc5ccc(cc1n2)[nH]5)CC4(C)C)[nH]3 [HBC],–
740 nm,0.96,747 nm,0.14,3.8 ns,"COc1c2nc(cc3cc(C(C)=O)c(cc4nc(cc5cc(C(C)=O)c1[nH]5)C(C)(C)C4)[nH]3)C(C)(C)C2 [MeOBC-A, 3,13-Diacetyl-5-methoxy-8,8,18,18-tetramethylbacteriochlorin]",–
743 nm,0.95,749 nm,0.13,3.4 ns,"COc1c2nc(cc3[nH]c(cc4nc(cc5[nH]c1c(C(C)=O)c5C)C(C)(C)C4)c(C(C)=O)c3C)C(C)(C)C2 [MeOBC-MeA, 3,13-Diacetyl-5-methoxy-2,8,8,12,18,18-hexamethylbacteriochlorin]",–
818 nm,1.3,823 nm,0.036,1.9 ns,"CCOC(=O)c1c(CC)c2cc3nc(c4c5[nH]c(cc6nc(cc1[nH]2)CC6(C)C)c(CC)c5C(=O)N(Cc1ccccc1)C4=O)CC3(C)C [HBC-I, 15^2-N-Benzyl-3-ethoxycarbonyl-2,12-diethyl-8,8,18,18-tetramethylbacteriochlorin-13,15-dicarboximide]","Stokes shift (fluorescence Qy(0,0) to longer wavelength than absorption Qy(0,0)) ([2]; in toluene): ~5 nm"
733 nm,0.93,739 nm,0.19,4.6 ns,"COc1c2nc(cc3[nH]c4c(c5nc(cc6[nH]c1c(C(C)=O)c6C)C(C)(C)C5)CC(=O)c4c3C)C(C)(C)C2 [MeOBOP, 3-Acetyl-5-methoxy-2,8,8,12,18,18-hexamethylbacterio-13^1-oxophorbine]","Stokes shift (fluorescence Qy(0,0) to longer wavelength than absorption Qy(0,0)) ([2]; in toluene): ~5 nm"
709 nm,0.87,711 nm,0.25,5.0 ns,COc1c2nc(cc3ccc(cc4nc(cc5ccc1[nH]5)C(C)(C)C4)[nH]3)C(C)(C)C2 [MeOBC],–
766 nm,–,–,–,–,"CC(=O)c1c(C)c2cc3nc(cc4[nH]c(cc5nc(cc1[nH]2)CC5(C)C)c(C)c4C(C)=O)CC3(C)C [HBC-MeA, 3,13-Diacetyl-2,8,8,12,18,18-hexamethylbacteriochlorin]",–
768 nm,1.2,771 nm,0.11,2.9 ns,CC(=O)c1cc2cc3nc(cc4[nH]c(cc5nc(cc1[nH]2)CC5(C)C)cc4C(C)=O)CC3(C)C [HBC-A],–
